From ChEMBL document CHEMBL4368923 (J Med Chem, 2019)

Legend:
[1] = tested on: Human immunodeficiency virus 1; assay: Antiviral activity against HIV1 3B infected in human MT4 cells assessed as inhibition of virus-induced cytotoxicity after 5 days by MTT assay; assay type: functional, organism-based; settings: Human immunodeficiency virus 1, 3B, MT4, 120 h
[2] = tested on: Human immunodeficiency virus 1; assay: Antiviral activity against HIV1 RES056 harboring reverse transcriptase K103N/Y181C double mutant infected in human MT4 cells assessed as inhibition of virus-induced cytotoxicity after 5 days by MTT assay; assay type: functional, organism-based; settings: Human immunodeficiency virus 1, RES056, MT4, 120 h
[3] = Cytotoxicity against human MT4 cells assessed as reduction in cell viability after 5 days by MTT assay; assay type: cell-based
[4] = tested on: Human immunodeficiency virus 1; assay: Antiviral activity against HIV1 harboring reverse transcriptase E138K mutant infected in human MT4 cells assessed as inhibition of virus-induced cytotoxicity after 5 days by MTT assay; assay type: functional, organism-based; settings: Human immunodeficiency virus 1, MT4, 120 h
[5] = tested on: Human immunodeficiency virus 1; assay: Antiviral activity against HIV1 harboring reverse transcriptase L100I mutant infected in human MT4 cells assessed as inhibition of virus-induced cytotoxicity after 5 days by MTT assay; assay type: functional, organism-based; settings: Human immunodeficiency virus 1, MT4, 120 h
[6] = tested on: Human immunodeficiency virus 1; assay: Antiviral activity against HIV1 harboring reverse transcriptase K103N mutant infected in human MT4 cells assessed as inhibition of virus-induced cytotoxicity after 5 days by MTT assay; assay type: functional, organism-based; settings: Human immunodeficiency virus 1, MT4, 120 h
[7] = tested on: Human immunodeficiency virus 1; assay: Antiviral activity against HIV1 harboring reverse transcriptase Y181C mutant infected in human MT4 cells assessed as inhibition of virus-induced cytotoxicity after 5 days by MTT assay; assay type: functional, organism-based; settings: Human immunodeficiency virus 1, MT4, 120 h
[8] = tested on: Human immunodeficiency virus 1; assay: Antiviral activity against HIV1 harboring reverse transcriptase Y188L mutant infected in human MT4 cells assessed as inhibition of virus-induced cytotoxicity after 5 days by MTT assay; assay type: functional, organism-based; settings: Human immunodeficiency virus 1, MT4, 120 h
[9] = tested on: Human immunodeficiency virus 1; assay: Antiviral activity against HIV1 harboring reverse transcriptase F227L/V106A double mutant infected in human MT4 cells assessed as inhibition of virus-induced cytotoxicity after 5 days by MTT assay; assay type: functional, organism-based; settings: Human immunodeficiency virus 1, MT4, 120 h
[10] = molecular target: Human immunodeficiency virus type 1 reverse transcriptase (Human immunodeficiency virus 1, UniProt Q72547); assay: Inhibition of HIV1 reverse transcriptase p66/p51 using poly(rA)/oligo(dT)16 as template/primer measured after 40 mins by pico-green based spectrofluorometric analysis
[11] = Acute toxicity in Kunming mouse assessed as mortality at 2000 mg/kg, ig measured every day for 1 week; assay type: organism-based; settings: in vivo, po, 168 h
[12] = Acute toxicity in Kunming mouse assessed as lethargy at 2000 mg/kg, ig measured every day for 1 week; assay type: organism-based; settings: in vivo, po, 168 h
[13] = Acute toxicity in Kunming mouse assessed as clonic convulsion at 2000 mg/kg, ig measured every day for 1 week; assay type: organism-based; settings: in vivo, po, 168 h
[14] = Acute toxicity in Kunming mouse assessed as anorexia at 2000 mg/kg, ig measured every day for 1 week; assay type: organism-based; settings: in vivo, po, 168 h
[15] = Acute toxicity in Kunming mouse assessed as ruffled fur at 2000 mg/kg, ig measured every day for 1 week; assay type: organism-based; settings: in vivo, po, 168 h
[16] = Acute toxicity in Kunming mouse assessed as effect on body weight at 2000 mg/kg, ig measured every day for 1 week; assay type: organism-based; settings: in vivo, po, 168 h
[17] = Subacute toxicity in Kunming mouse assessed as mortality at 50 mg/kg, po dosed once every other day for 14 days; assay type: organism-based; settings: in vivo, 336 h
[18] = Subacute toxicity in Kunming mouse assessed as lethargy at 50 mg/kg, po dosed once every other day for 14 days; assay type: organism-based; settings: in vivo, 336 h
[19] = Subacute toxicity in Kunming mouse assessed as clonic convulsion at 50 mg/kg, po dosed once every other day for 14 days; assay type: organism-based; settings: in vivo, 336 h
[20] = Subacute toxicity in Kunming mouse assessed as anorexia at 50 mg/kg, po dosed once every other day for 14 days; assay type: organism-based; settings: in vivo, 336 h
[21] = Subacute toxicity in Kunming mouse assessed as ruffled fur at 50 mg/kg, po dosed once every other day for 14 days; assay type: organism-based; settings: in vivo, 336 h
[22] = Subacute toxicity in Kunming mouse assessed as effect on body weight at 50 mg/kg, po dosed once every other day for 14 days; assay type: organism-based; settings: in vivo, 336 h
[23] = Subacute toxicity in Kunming mouse assessed as pathological damage to heart at 50 mg/kg, po dosed once every other day for 14 days by hematoxylin and eosin staining based assay; assay type: organism-based; settings: in vivo, 336 h
[24] = Subacute toxicity in Kunming mouse assessed as pathological damage to liver at 50 mg/kg, po dosed once every other day for 14 days by hematoxylin and eosin staining based assay; assay type: organism-based; settings: in vivo, 336 h
[25] = Subacute toxicity in Kunming mouse assessed as pathological damage to spleen at 50 mg/kg, po dosed once every other day for 14 days by hematoxylin and eosin staining based assay; assay type: organism-based; settings: in vivo, 336 h
[26] = Subacute toxicity in Kunming mouse assessed as pathological damage to lungs at 50 mg/kg, po dosed once every other day for 14 days by hematoxylin and eosin staining based assay; assay type: organism-based; settings: in vivo, 336 h
[27] = Subacute toxicity in Kunming mouse assessed as pathological damage to kidneys at 50 mg/kg, po dosed once every other day for 14 days by hematoxylin and eosin staining based assay; assay type: organism-based; settings: in vivo, 336 h
[28] = Acute toxicity in Kunming mouse assessed as effect on animal growth at 2000 mg/kg, ig measured every day for 1 week; assay type: organism-based; settings: in vivo, po, 168 h

Compound Cc1cc(/C=C/C#N)cc(C)c1Oc1ccnc(Nc2ccc(CN3CCN(S(C)(=O)=O)CC3)cc2)n1 has an EC50 ([1]; read-out: EC50) of 3.5 nM, an EC50 ([1]; read-out: pEC50 (converted)) of 3.47 nM and an EC50 [2] of 790 nM. For the same compound, the CC50 at 120 h [3] was ≥ 173 µM, the EC50 [4] was 7.5 nM and the EC50 [5] was 10 nM. It also gave an EC50 [6] of 3.6 nM, an EC50 [7] of 25 nM and an EC50 [8] of 1620 nM. For the same compound, the EC50 [9] was 110 nM, the IC50 [10] was 67 nM and the Activity [11] was “Non-Toxic”. For the same compound, the Activity [12] was “Non-Toxic”, the Activity [13] was “Non-Toxic” and the Activity [14] was “Non-Toxic”. The Activity [15] was “Non-Toxic”, the Activity [16] was “Non-Toxic” and the Activity [17] was “Non-Toxic”. The Activity [18] was “Non-Toxic”, the Activity [19] was “Non-Toxic” and the Activity [20] was “Non-Toxic”. The Activity [21] was “Non-Toxic”, the Activity [22] was “Non-Toxic” and the Activity [23] was “Non-Toxic”. For the same compound, the Activity [24] was “Non-Toxic”, the Activity [25] was “Non-Toxic” and the Activity [26] was “Non-Toxic”. For the same compound, the Activity [27] was “Non-Toxic” and the Activity [28] was “Non-Toxic”.
